Test results reported in US4007165A (priority 1974, dated 1977).

Tests used:
[1] = Oxidation of iodide ion to free iodine
[2] = for temperature at which it begins to evolve nitrogen: onset; for gas/nitrogen evolution or decomposition: room temperature or on melting
[3] = Curing of unsaturated polyester-styrene resin
Procedure: An unsaturated polyester resin was made by reacting maleic anhydride (1.0 mole), phthalic anhydride (1.0 mole), and propylene glycol (2.2 moles) until an acid number of 45-50 was obtained. To this was added hydroquinone at a 0.013% concentration. Seven parts of this unsaturated polyester was diluted with 3 parts of monomeric styrene to obtain a homogeneous blend having a viscosity of 13.08 poise and a specific gravity of 1.14.
To 20 grams of this blend was added 0.128 gram of alpha-(tert.-butylazo)isobutyronitrile and the resultant composition placed in a constant temperature bath at 212° F. (100° C.). […] At 180° F. (82.2° C.), a peak exotherm of 381° F. (193.9° C.) was obtained in 13.3 minutes. The resultant cured materials were very hard.
The procedure of Example III was used at 212° F. (100° C.) and 240° F. (115.6° C.) where peak exotherms of 414° F. (212.2° C.) and 440° F. (226.7° C.) were obtained after 10.0 and 5.3 minutes respectively using 0.2 gram of the 1-tert.-butylazo-1-cyanocyclohexane. The resultant cured resins were very hard.
The curing procedure and resin are described in Example III.

[4] = Thermal decomposition half-life; type: physicochemical; conditions: gas evolution technique, trichlorobenzene solvent
Procedure: It produces 179 cc. of gas per gram at 110° C. The following half-life data have been determined:
The following half-life data have been determined by gas evolution technique using trichlorobenzene as the solvent: […]

[5] = Polymerization of styrene in sealed tube at 70° C; conditions: for dry polymer weight: 10.0 grams styrene
Procedure: An 18 × 150 mm pyrex test tube was filled with 10.0 grams of distilled styrene monomer and 0.121 grams (8.4 × 10^^-4 moles) of 2-t-butylazo-2-hydroxypropane. The test tube was flushed out with nitrogen and placed in a constant temperature bath thermostatted at 70° C. After 4.0 hours at 70° C, the tube was removed and quickly chilled to -20° F to prevent post polymerization. The sealed tube was then broken and the polymer dissolved in 1000 ml of methanol to precipitate the polystyrene. The polymer was separated by filtration and dried in an oven at 50°-55° C. The dry polymer weighed 3.4 grams (34% conversion). The rate of conversion of monomer to polymer was 8.5% per hour.
An 18 × 150 mm pyrex test tube was filled with 10.0 grams of distilled styrene monomer and 0.134 grams (8.5 × 10^^-4 moles) of 2-t-butylazo-2-hydroxybutane from Example V. The test tube was flushed out with nitrogen and placed in a constant temperature thermostatted bath at 70° C. After 6.0 hours at 70° C, the tube was removed and quickly chilled to -20° F to prevent post polymerization. The sealed tube was then broken and the polymer dissolved in 1000 ml of methanol to precipitate the polystyrene. The polymer was separated by filtration and dried in an oven at 50°-55° C. The dry polymer weighed 4.8 grams (48% conversion). The rate of conversion of monomer to polymer was 8.0% per hour.

[6] = 265° F. (129.4° C.), 1.0 weight per cent
[7] = 180° F. (82.2° C.), loading not given
[8] = 212° F. (100° C.), loading not given
[9] = 212° F. (100° C.), 1.0 weight per cent
[10] = 240° F. (115.6° C.), 1.0 weight per cent
[11] = 180° F. (82.2° C.), 1.0 weight per cent

With `CC(C)(C)N=NC(=O)NCC(=O)O` [XVII, tert.-butylazo-N-carboxymethylformamide] the “oxidizing of iodide ion” value [1] was “oxidized iodide ion to free iodine” and the “temperature at which it begins to evolve nitrogen” value (from here on “temperature at which it begins”) [2] was 60 °C.

In the case of `CNC(=O)N=NC(C)(C)C` [XIV, tert.-butylazo-N-methylformamide], the “hardness of cured resin” value [3] is reported as “very hard”, the peak exotherm [3, 6] is reported as 428 ° F and the “time to peak exotherm” value [3, 6] is reported as 17.1 min.

In the case of `CC(C)OC(=O)N=NC(C)(C)c1ccccc1` [Example XVIII B, Isopropyl tert.-cumylazocarboxylate], the “temperature at which it evolves nitrogen” value [2] is reported as 80 °C.

For `CC(C)(C)N=NC(C)(C#N)C1CC1` (stereo not drawn) [Example XII, Alpha-tert-butylazo-alpha-cyclopropylpropionitrile], the “hardness of cured resin” value [3] was “very hard”, the peak exotherm [3, 7] was 403 ° F and the “time to peak exotherm” value [3, 7] was 3.3 min. The peak exotherm [3, 8] was 420 ° F, the “time to peak exotherm” value [3, 8] was 2.1 min and the “temperature at which it begins” value [2] was 75 °C.

For `CC(C)CC(C)(N=NC(C)(C)C)OC#N` (stereo not shown) [LIII, 2-t-Butylazo-2-cyanato-4-methylpentane], the “Barcol Hardness” value ([3]; bath 115° C.) was 45, the “Minutes to Peak Exotherm” value ([3]; bath 115° C.) was 3.8 min and the “peak exotherm” value ([3]; bath 115° C.) was 412 ° F.

For `CC(C)CC(C)(N=NC(C)(C)C)NNC(C)(C)C` (stereo not shown) [LXIX, 2-t-Butylazo-2-t-butylhydrazo-4-methylpentane], the “Barcol Hardness” value ([3]; bath 82° C.) was 40, the “Minutes to Peak Exotherm” value ([3]; bath 82° C.) was 1.4 min and the “peak exotherm” value ([3]; bath 82° C.) was 275 ° F. For the same molecule, the “gas/nitrogen evolution or decomposition” value [2] was “evolves nitrogen at room temperature”.

In the case of `COC(C)(N=NC(C)(C)C)c1ccccc1` (stereo not shown) [XXXIX, 1-t-butylazo-1-methoxy-1-phenylethane], the “Barcol Hardness” value ([3]; bath 82° C.) is reported as 40, the “Minutes to Peak Exotherm” value ([3]; bath 82° C.) is reported as 6.6 min and the “peak exotherm” value ([3]; bath 82° C.) is reported as 371 ° F.

In the case of `CC(C)(C)N=NC(N)=O` [Example XIII, tert.-butylazoformamide], the “hardness of cured resin” value [3] is reported as “very hard”, the peak exotherm [3, 9] is reported as 407 ° F and the “time to peak exotherm” value [3, 9] is reported as 7.1 min. For the same molecule, the peak exotherm [3, 10] was 430 ° F, the “time to peak exotherm” value [3, 10] was 5.9 min and the peak exotherm [3, 6] was 438 ° F. The “time to peak exotherm” value [3, 6] was 4.5 min, the “t 1/2” value ([4]; 110° C) was 5.73 h and the “t 1/2” value ([4]; 120° C) was 3.00 h. The “t 1/2” value ([4]; 130° C) was 0.87 h and the “t 1/2” value ([4]; 150° C) was 0.14 h.

For `CC(C)(N=NC(N)=O)c1ccccc1` [XVIII, Tert.-cumylazoformamide], the “oxidizing of iodide ion” value [1] was “oxidized iodide ion to free iodine”, the “hardness of cured resin” value [3] was “very hard” and the peak exotherm [3, 10] was 422 ° F. The “time to peak exotherm” value [3, 10] was 10.3 min, the peak exotherm [3, 6] was 454 ° F and the “time to peak exotherm” value [3, 6] was 6.0 min. The “gas/nitrogen evolution or decomposition” value [2] was “rapidly evolves nitrogen upon melting”.

In the case of `CC(C)CC(C)(N=NC(C)(C)C)OC(C)(C)C` (stereo not shown) [LIV, 2-t-Butylazo-2-t-butoxy-4-methylpentane], the “Barcol Hardness” value ([3]; bath 115° C.) is reported as 20, the “Minutes to Peak Exotherm” value ([3]; bath 115° C.) is reported as 2.8 min and the “peak exotherm” value ([3]; bath 115° C.) is reported as 358 ° F.

In the case of `CCC(C)(O)N=NC(C)(C)C` (stereo not shown) [2-t-butylazo-2-hydroxybutane], the “rate of conversion of monomer to polymer” value ([5]; 6.0 hours) is reported as 8.0 % per hour, the conversion ([5]; 6.0 hours, 8.5 × 10^^-4 moles in 10.0 grams styrene) is reported as 48% and the dry polymer weight ([5]; 6.0 hours) is reported as 4.8 grams.

In the case of `CC(C)CC(C)(N=NC(C)(C)C)OOC(C)(C)CCC(C)(C)OOC(C)(CC(C)C)N=NC(C)(C)C` (stereo not shown) [LXV, 2,2,5,8,8,11,11,14,17,17-decamethyl-5,14-diisobutyl-Δ^3,15-3,4,15,16-tetraaza-6,7,12,13-tetraoxaoctadecadiene], the “temperature at which it evolves nitrogen” value [2] is reported as 30 °C.

With `CN(C)C(=O)N=NC(C)(C)C` [XV, tert.-butylazo-N,N-dimethylformamide] the “oxidizing of iodide ion” value [1] was “oxidized iodide ion to free iodine”.

In the case of `CC(C)(C#N)N=NC(C)(C)c1ccccc1` [Example XI, Alpha-(tert.-cumylazo)isobutyronitrile], the “hardness of cured resin” value [3] is reported as “very hard”, the peak exotherm [3, 11] is reported as 378 ° F and the “time to peak exotherm” value [3, 11] is reported as 1.3 min. The “temperature at which it begins” value [2] was 55 °C.

In the case of `CC(C)CC(C)(N=NC(C)(C)C)OOC(C)(CC(C)C)N=NC(C)(C)C` (stereo not shown) [LVIII, Di[1-(t-butylazo)-1,3-dimethylbutyl] Peroxide], the “gas/nitrogen evolution or decomposition” value [2] is reported as “began to gas rapidly upon reaching room temperature”.

For `CC(C)(C)N=NC(C)(C)O` [LXXII, 2-t-Butylazo-2-hydroxypropane], the “rate of conversion of monomer to polymer” value ([5]; 4.0 hours) was 8.5 % per hour, the conversion ([5]; 4.0 hours, 8.4 × 10^^-4 moles in 10.0 grams styrene) was 34% and the dry polymer weight ([5]; 4.0 hours) was 3.4 grams.

In the case of `CC(C)(C)N=NC1(C(N)=O)CCCCC1` [XXIV, 1-tert. butylazo-1-carbamylcyclohexane], the peak exotherm [3, 10] is reported as 444 ° F, the “time to peak exotherm” value [3, 10] is reported as 6.8 min and the “temperature at which it evolves nitrogen” value [2] is reported as “above 120 °C”.

With `CC(C)(C)N=NC(C)(C#N)C(C)(C)C` (stereo not shown) [Example IX, 2-tert.-butylazo-2-cyano-3,3-dimethylbutane] the “hardness of cured resin” value [3] was “very hard”, the peak exotherm [3, 7] was 388 ° F and the “time to peak exotherm” value [3, 7] was 10.4 min. For the same molecule, the peak exotherm [3, 8] was 430 ° F, the “time to peak exotherm” value [3, 8] was 4.9 min and the “temperature at which it begins” value [2] was 95 °C.

With `CC(C)CC(C#N)(CC(C)C)N=NC(C)(C)C` [Example VII, 4-tert.-butylazo-4-cyano-2,6-dimethylheptane] the “hardness of cured resin” value [3] was “very hard”, the peak exotherm [3, 11] was 371 ° F and the “time to peak exotherm” value [3, 11] was 2.8 min. For the same molecule, the “temperature at which it begins” value [2] was 70 °C.

In the case of `C=C(C)N=NC(C)(C)C` [XXII, 2(-tert.-butylazo)propene], the “gas/nitrogen evolution or decomposition” value [2] is reported as “evolves nitrogen at room temperature”.

With `CC(C)CC(C)(N=NC(C)(C)C)N=[N+]=[N-]` (stereo not shown) [XLII, 2-t-butylazo-2-azido-4-methylpentane] the “Barcol Hardness” value ([3]; bath 100° C.) was 40, the “Minutes to Peak Exotherm” value ([3]; bath 100° C.) was 5.3 min and the “peak exotherm” value ([3]; bath 100° C.) was 418 ° F.

With `CC1CC(C)(C)CC(C#N)(N=NC(C)(C)C)C1` (stereo not shown) [Example VIII, 1-tert.-butylazo-1-cyano-3,3,5-trimethylcyclohexane] the “hardness of cured resin” value [3] was “very hard”, the peak exotherm [3, 11] was 384 ° F and the “time to peak exotherm” value [3, 11] was 9.4 min. For the same molecule, the “temperature at which it begins” value [2] was 100 °C.

With `CC(C)(C)N=Nc1nc(N=NC(C)(C)C)nc(N=NC(C)(C)C)n1` [XXI, 2,4,6-Tri-(tert.-butylazo)-1,3,5-triazine] the “oxidizing of iodide ion” value [1] was “oxidized iodide ion to free iodine” and the “temperature at which it begins” value [2] was 102 °C.

For `CCCNC(C)(CC(C)C)N=NC(C)(C)C` (stereo not shown) [Example LX, 2-t-Butylazo-2-(propylamino)-4-methylpentane], the “gas/nitrogen evolution or decomposition” value [2] was “slowly evolves gas at room temperature”.

For `CC(C)CC(C)(N=NC(C)(C)C)NNc1ccccc1` (stereo not shown) [LXVIII, 2-t-Butylazo-2-phenylhydrazo-4-methylpentane], the “gas/nitrogen evolution or decomposition” value [2] was “decomposes rapidly at room temperature”.

For `CC(C)(C)N=NC(C)(C)C(N)=O` [Example XXV, 2-t-butylazo-2-carbamylpropane], the peak exotherm [3, 10] was 442 ° F, the “time to peak exotherm” value [3, 10] was 5.7 min and the “temperature at which it evolves nitrogen” value [2] was “above 120 °C”.

In the case of `CC(C)(C)N=NC(=O)c1ccccc1` [Example XX, Benzoyl tert.-butyldiimide], the “hardness of cured resin” value [3] is reported as “hard”, the peak exotherm [3, 11] is reported as 233 ° F and the “time to peak exotherm” value [3, 11] is reported as 10.0 min. The “temperature at which it evolves nitrogen” value [2] was 25 °C.

For `COC(C)(CC(C)C)N=NC(C)(C)C` (stereo not shown) [XXXVI, 2-t-butylazo-2-methoxy-4-methylpentane], the “Barcol Hardness” value ([3]; bath 115° C.) was 40, the “Minutes to Peak Exotherm” value ([3]; bath 115° C.) was 7.2 min and the “peak exotherm” value ([3]; bath 115° C.) was 400 ° F.

In the case of `CC(C)CC(C)(N=NC(C)(C)C)SC#N` (stereo not shown) [LI, 2-t-Butylazo-2-thiocyanato-4-methylpentane], the “Barcol Hardness” value ([3]; bath 115° C.) is reported as 45, the “Minutes to Peak Exotherm” value ([3]; bath 115° C.) is reported as 3.4 min and the “peak exotherm” value ([3]; bath 115° C.) is reported as 438 ° F.
